# Target: T1, human mAChR M1 (Homo sapiens, UniProt P11229)
# T1 construct: host or cells: CHO-K1
# T1 sequence (P11229 1-460): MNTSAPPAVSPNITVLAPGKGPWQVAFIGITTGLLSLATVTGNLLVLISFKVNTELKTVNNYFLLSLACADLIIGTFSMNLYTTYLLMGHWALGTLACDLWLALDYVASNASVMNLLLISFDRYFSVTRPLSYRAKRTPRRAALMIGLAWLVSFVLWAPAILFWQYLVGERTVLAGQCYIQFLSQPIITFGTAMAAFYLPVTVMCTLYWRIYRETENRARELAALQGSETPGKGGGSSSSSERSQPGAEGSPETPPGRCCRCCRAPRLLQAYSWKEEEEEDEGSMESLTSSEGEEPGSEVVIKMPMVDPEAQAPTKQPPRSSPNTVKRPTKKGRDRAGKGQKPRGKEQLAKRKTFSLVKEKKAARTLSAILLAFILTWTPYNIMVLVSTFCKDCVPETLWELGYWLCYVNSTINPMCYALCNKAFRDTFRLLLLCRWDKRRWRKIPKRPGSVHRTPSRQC
# Assay: mAChR M1 cell-based functional assay (calcium mobilization, Fluo-4, FDSS)
# Details: CHO-K1 cells stably expressing hM1; for Emax: EC20 acetylcholine response, read-out: Human M1 Emax; for EC50: positive allosteric modulator activity as increase in the EC20 acetylcholine response
# Experimental: Chinese hamster ovary (CHO-K1) cells stably expressing rat (r)M1 were purchased from the American Type Culture Collection and cultured according to their indicated protocol. […] To make stable rM2, hM2, rM3, hM4, and rM4 cell lines for use in calcium mobilization assays, these cells also were stably transfected with a chimeric G-protein (Gqi5) (provided by B. R. Conklin, University of California, San Francisco) using Lipofectamine 2000. rM1, hM1, rM3, hM3, rM5, and hM5 cells were grown in Ham's F-12 medium containing 10% heat-inactivated fetal bovine serum (FBS), 20 mM HEPES, and 50 μg/mL G418 sulfate. rM2-Gqi5, hM2-Gqi5, and hM4-Gqi5 cells were grown in the same medium also containing 500 μg/mL Hygromycin B. Stable rM4-Gqi5 cells were grown in DMEM containing 10% heat-inactivated FBS, 20 mM HEPES, 400 μg/mL G418 sulfate, and 500 μg/mL Hygromycin B.
# For high throughput measurement of agonist-evoked increases in intracellular calcium, CHO-K1 cells stably expressing muscarinic receptors were plated in growth medium lacking G418 and hygromycin at 15,000 cells/20 μL/well in Greiner 384-well black-walled, tissue culture (TC)-treated, clear-bottom plates (VWR). Cells were incubated overnight at 37° C. and 5% CO2. […] Compound master plates were formatted in an 11 point CRC format (1:3 dilutions) in 100% DMSO with a starting concentration of 10 mM using the BRAVO liquid handler (Agilent). Test compound CRCs were then transferred to daughter plates (240 nL) using the Echo acoustic plate reformatter (Labcyte, Sunnyvale, Calif.) and then diluted into assay buffer (40 μL) to a 2× stock using a Thermo Fisher Combi (Thermo Fisher Scientific, Waltham, Mass.).
# Calcium flux was measured using the Functional Drug Screening System (FDSS) 6000 (Hamamatsu Corporation, Tokyo, Japan) as an increase in the fluorescent static ratio. Compounds were applied to cells (20 μL, 2×) using the automated system of the FDSS 6000 at 4 s into the 300 s protocol and the data were collected at 1 Hz. […] Agonist activity was analyzed as a concentration-dependent increase in calcium mobilization upon compound addition. Positive allosteric modulator activity was analyzed as a concentration-dependent increase in the EC20 acetylcholine response. Antagonist activity was analyzed as a concentration-dependent decrease in the EC80 acetylcholine response. Concentration-response curves were generated using a four-parameter logistical equation in XLfit curve fitting software (IDBS, Bridgewater, N.J.) for Excel (Microsoft, Redmond, Wash.) or Prism (GraphPad Software, Inc., San Diego, Calif.).
# The compound numbers correspond to the compound numbers used in Table 1.
Emax,EC50,SMILES
60.4%,2130 nM,"Cn1ccc(-c2ccc(Cc3cc(C(=O)NC4CCOCC4)nc4sccc34)cc2)n1 [Compound 87, 4-[[4-(1-methylpyrazol-3-yl)phenyl]methyl]-N-tetrahydropyran-4-yl-thieno[2,3-b]pyridine-6-carboxamide]"
45.5%,> 10000 nM,"Cn1ccc(-c2ccc(Cc3cc(C(=O)NC4(C)COC4)nc4c3ccn4C)cn2)n1 [Compound 152, 1-methyl-N-(3-methyloxetan-3-yl)-4-[[6-(1-methylpyrazol-3-yl)-3-pyridyl]methyl]pyrrolo[2,3-b]pyridine-6-carboxamide]"
59.4%,150 nM,"Cn1ccc(-c2ccc(Cc3cc(C(=O)NCC4CCOC4)nc4sccc34)cn2)n1 (stereo not shown) [Compound 108, 4-[[6-(1-methylpyrazol-3-yl)-3-pyridyl]methyl]-N-(tetrahydrofuran-3-ylmethyl)thieno[2,3-b]pyridine-6-carboxamide]"
59.5%,1900 nM,"Cc1nc(-c2ccc(Cc3cc(C(=O)N[C@@H]4CCOC4)nc4sccc34)cc2)co1 [Compound 137, 4-[[4-(2-methyloxazol-4-yl)phenyl]methyl]-N-[(3R)-tetrahydrofuran-3-yl]thieno[2,3-b]pyridine-6-carboxamide]"
59.7%,50 nM,"Cn1cc(-c2ccc(Cc3cc(C(=O)NC4CCOC(C)(C)C4)nc4sccc34)cn2)cn1 (stereo not shown) [Compound 115, N-(2,2-dimethyltetrahydropyran-4-yl)-4-[[6-(1-methylpyrazol-4-yl)-3-pyridyl]methyl]thieno[2,3-b]pyridine-6-carboxamide]"
57.3%,90 nM,"Cn1ccc(-c2ccc(Cc3cc(C(=O)NCC4CCOCC4)nc4sccc34)cn2)n1 [Compound 107, 4-[[6-(1-methylpyrazol-3-yl)-3-pyridyl]methyl]-N-(tetrahydropyran-4-ylmethyl)thieno[2,3-b]pyridine-6-carboxamide]"
59.7%,90 nM,"CC1CC(NC(=O)c2cc(Cc3ccc(-c4ccn(C)n4)nc3)c3ccsc3n2)CC(C)O1 (stereo not shown) [Compound 104, N-(2,6-dimethyltetrahydropyran-4-yl)-4-[[6-(1-methylpyrazol-3-yl)-3-pyridyl]methyl]thieno[2,3-b]pyridine-6-carboxamide]"
62.3%,2320 nM,"Cc1nc(-c2ccc(Cc3cc(C(=O)NC4CCOCC4(C)C)nc4sccc34)cc2)co1 (stereo not shown) [Compound 133, N-(3,3-dimethyltetrahydropyran-4-yl)-4-[[4-(2-methyloxazol-4-yl)phenyl]methyl]thieno[2,3-b]pyridine-6-carboxamide]"
36.4%,10 nM,"Cn1ccc(-c2ccc(Cc3cc(C(=O)NC4CCOC(C)(C)C4)nc4sccc34)cc2)n1 (stereo not shown) [Compound 90, N-(2,2-dimethyltetrahydropyran-4-yl)-4-[[4-(1-methylpyrazol-3-yl)phenyl]methyl]thieno[2,3-b]pyridine-6-carboxamide]"
60.5%,810 nM,"Cn1cc(-c2ccc(Cc3cc(C(=O)N[C@H]4CCCC[C@@H]4O)nc4sccc34)cn2)cn1 [Compound 113, N-[(1S,2S)-2-hydroxycyclohexyl]-4-[[6-(1-methylpyrazol-4-yl)-3-pyridyl]methyl]thieno[2,3-b]pyridine-6-carboxamide]"
65.7%,110 nM,"Cn1ccc(-c2ccc(Cc3cc(C(=O)N[C@H]4CCCC[C@@H]4O)nc4c3ccn4C)cn2)n1 [Compound 155, N-[(1S,2S)-2-hydroxycyclohexyl]-1-methyl-4-[[6-(1-methylpyrazol-3-yl)-3-pyridyl]methyl]pyrrolo[2,3-b]pyridine-6-carboxamide]"

# The remaining lines, values behind:
SMILES,Emax,EC50
"Cn1ccc2c(Cc3ccc(-c4nccs4)cc3)cc(C(=O)N[C@H]3CC[C@@H]3O)nc21 [Compound 63, N-[(1S,2S)-2-hydroxycyclobutyl]-1-methyl-4-[(4-thiazol-2-ylphenyl)methyl]pyrrolo[2,3-b]pyridine-6-carboxamide]",60.4%,1500 nM
"Cn1ccc(-c2ccc(Cc3cc(C(=O)NC4COC4)nc4c3ccn4C)cc2)n1 [Compound 44, 1-methy1-4-[[4-(1-methylpyrazol-3-yl)phenyl]methyl]-N-(oxetan-3-yl)pyrrolo[2,3-b]pyridine-6-carboxamide]",56.1%,6280 nM
"Cn1ccc2c(Cc3ccc(-c4nccs4)cc3)cc(C(=O)NCC3CCOCC3)nc21 [Compound 68, 1-methyl-N-(tetrahydropyran-4-ylmethyl)-4-[(4-thiazol-2-ylphenyl)methyl]pyrrolo[2,3-b]pyridine-6-carboxamide]",37.9%,1450 nM
"Cn1ccc2c(Cc3ccc(-c4cscn4)cc3)cc(C(=O)N[C@@H]3CCCOC3)nc21 [Compound 32, 1-methyl-N-[(3R)-tetrahydropyran-3-yl]-4-[(4-thiazol-4-ylphenyl)methyl]pyrrolo[2,3-b]pyridine-6-carboxamide]",39.7%,380 nM
"CC1CC(NC(=O)c2cc(Cc3ccc(-c4cscn4)cc3)c3ccn(C)c3n2)CC(C)O1 (stereo not shown) [Compound 24, N-(2,6-dimethyltetrahydropyran-4-yl)-1-methyl-4-[(4-thiazol-4-ylphenyl)methyl]pyrrolo[2,3-b]pyridine-6-carboxamide]",65.3%,1110 nM
"COCCNC(=O)c1cc(Cc2ccc(-n3cccn3)cc2)c2ccsc2n1 [Compound 85, N-(2-methoxyethyl)-4-[(4-pyrazol-1-ylphenyl)methyl]thieno[2,3-b]pyridine-6-carboxamide]",58.6%,70 nM
"CC1(C)CC(NC(=O)c2cc(Cc3ccc(-n4cccn4)cc3)c3ccsc3n2)CCO1 (stereo not shown) [Compound 72, N-(2,2-dimethyltetrahydropyran-4-yl)-4-[(4-pyrazol-1-ylphenyl)methyl]thieno[2,3-b]pyridine-6-carboxamide]",69%,1420 nM
"O=C(NC1COC1)c1cc(Cc2ccc(-n3cccn3)cc2)c2ccsc2n1 [Compound 81, N-(oxetan-3-yl)-4-[(4-pyrazol-1-ylphenyl)methyl]thieno[2,3-b]pyridine-6-carboxamide]",69.4%,190 nM
"Cc1nc(-c2ccc(Cc3cc(C(=O)NC4CCOC(C)(C)C4)nc4c3ccn4C)cc2)co1 (stereo not shown) [Compound 55, N-(2,2-dimethyltetrahydropyran-4-yl)-1-methyl-4-[[4-(2-methyloxazol-4-yl)phenyl]methyl]pyrrolo[2,3-b]pyridine-6-carboxamide]",86.1%,520 nM
"CCn1ccc2c(Cc3ccc(-n4cccn4)cc3)cc(C(=O)NC3CC4(COC4)C3)nc21 [Compound 12, 1-ethyl-N-(2-oxaspiro[3.3]heptan-6-yl)-4-[(4-pyrazol-1-ylphenyl)methyl]pyrrolo[2,3-b]pyridine-6-carboxamide]",72.3%,200 nM
"Cn1ncc2c(Cc3ccc(-n4cccn4)cc3)cc(C(=O)N[C@H]3CCOC[C@@H]3O)nc21 [Compound 7, N-[(3R,4S)-3-hydroxytetrahydropyran-4-yl]-1-methyl-4-[(4-pyrazol-1-ylphenyl)methyl]pyrazolo[3,4-b]pyridine-6-carboxamide]",89%,200 nM
"Cn1ccc2c(Cc3ccc(-c4cscn4)cc3)cc(C(=O)N[C@H]3CCCC[C@@H]3O)nc21 [Compound 22, N-[(1S,2S)-2-hydroxycyclohexyl]-1-methyl-4-[(4-thiazol-4-ylphenyl)methyl]pyrrolo[2,3-b]pyridine-6-carboxamide]",63.3%,40 nM

# Reference: patent US10899759B2, “Positive allosteric modulators of the muscarinic acetylcholine receptor M1” (Vanderbilt University, priority 2016, dated 2021)
